# Measured values: paper PMC10650714, “Double Attack to Oxidative Stress in Neurodegenerative Disorders: MAO-B and Nrf2 as Elected Targets” (Molecules, 2023)
# Experiments:
# [1] = system: SH-SY5Y human neuroblastoma cells; experiment: Cell viability, MTT assay; assay type: cell-based; conditions: 0.5 to 50 μM, 24 h
# Method: To define the concentration range to use in the in vitro experimental settings, the cytotoxicity of compounds 1–5 was evaluated in SH-SY5Y human neuroblastoma cells, in comparison with CAPE, the reference compound for Nrf2 activation (Figure 5). Cells were treated with compounds at concentrations ranging from 0.5 to 50 μM for 24 h and cell viability was evaluated via MTT assay. All compounds were well tolerated at each concentration, resulting in no or very low reduction in cell viability.
# MTT assay, based on the mitochondrial dehydrogenase activity that reduces 3-(4,5-dimethylthiazol-2-yl)-2,5-diphenyl-tetrazolium bromide (MTT, Sigma, St Louis, MO, USA) is one of the standard assays used to measure the cellular metabolic activity as an indicator of cell viability, proliferation and cytotoxicity in a quantitative colorimetric assay. At day 0, SH-SY5Y cells were plated at a density of 2.5 × 10^4 viable cells per well in 96-well plates. After treatment, according to the experimental setting, cells were exposed to an MTT solution in serum-free medium (1 mg/mL). Following 4 h of incubation with MTT and treatment with SDS for 24 h, cell viability reduction was quantified by using a Synergy HT multidetection microplate reader (Bio-Tek).
# recombinant hMAO-B = biological target: T1, recombinant hMAO-B (Homo sapiens, UniProt P27338); experiment: Time-dependent inhibition study on hMAO-B; assay type: biochemical; conditions: pre-incubation 0 to about 20 min, 5 and 20 µM
# T1 construct: purchased Fluka-Sigma-Aldrich s.r.l; (Italy); host or cells: Baculovirus infected BT1 cells
# T1 sequence (P27338 1-520): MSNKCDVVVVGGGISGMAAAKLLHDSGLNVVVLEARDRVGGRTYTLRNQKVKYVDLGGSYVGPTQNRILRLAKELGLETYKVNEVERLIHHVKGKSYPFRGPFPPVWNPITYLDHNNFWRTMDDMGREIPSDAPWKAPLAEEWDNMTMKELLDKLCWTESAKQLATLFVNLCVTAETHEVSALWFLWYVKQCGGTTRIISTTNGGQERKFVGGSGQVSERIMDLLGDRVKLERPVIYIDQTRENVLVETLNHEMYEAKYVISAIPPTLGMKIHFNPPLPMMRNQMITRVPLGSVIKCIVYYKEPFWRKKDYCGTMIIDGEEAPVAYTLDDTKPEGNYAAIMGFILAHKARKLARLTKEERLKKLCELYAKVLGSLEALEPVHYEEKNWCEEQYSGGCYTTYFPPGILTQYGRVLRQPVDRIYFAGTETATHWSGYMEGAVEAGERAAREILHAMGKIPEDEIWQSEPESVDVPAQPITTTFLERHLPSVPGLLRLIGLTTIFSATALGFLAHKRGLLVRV
# Method: Time-dependent inhibition studies. The time-dependent inactivation by 2 was performed as previously reported. In detail, recombinant hMAO-B was pre-incubated in the K/Pi buffer for periods from 0 to about 20 min, at 37 °C in the absence (control sample) and in the presence of compound 2 (5 and 20 µM). After various pre-incubation times (at least 5 times after mixing of enzyme and inhibitor), the residual enzyme activity was determined: an aliquot of sample was withdrawn and diluted in the assay buffer (50-fold dilution) and then, the substrate was added under a “saturating” condition (Kyn = 300 µM).
smiles,measurement,setting,value
"O=C(/C=C/c1ccc(O)c(O)c1)Oc1ccc(CC2SC(=O)NC2=O)cc1 (stereo not drawn) [Compound 2, 4-((2,4-Dioxothiazolidin-5-yl)methyl)phenyl (E)-3-(3,4-Dihydroxyphenyl)acrylate]",melting point,,150 to 151 °C
same,cell viability / cytotoxicity,[1],not cytotoxic
same,time-dependent inhibition / inactivation of hMAO-B,recombinant hMAO-B,no inactivation and no time-dependent inhibition
